What all share (type): physicochemical
A short description of data set [1]: Bulk density (USP 616, Method 1). Particulars: crystalline powder. The procedure:
(§1) The bulk density and tapped density are measured by methods known to the skilled person, such as those described in the USP (“United States Pharmacopeia”) monograph, e.g., USP 27, Vol. 1, pp. 226 to 227, May 1, 2009-Apr. 30, 2010, Bulk Density 616, Method 1, Tapped Density 616, Method 2. The measurement of the grain size distribution is effected according to the protocols of European Pharmacopeia, Supplement 6.6, Chapter 2.9.31 “Particle Size Analysis by Laser Light Diffraction” pp. 5103-5107.

Data set [2] can be described thus: Tapped density (USP 616, Method 2). Particulars: crystalline powder. The procedure: as §1
Data set [3] can be described thus: Grain size distribution by laser light diffraction (Ph. Eur. 2.9.31). The method, then:
as §1
(§2) The crystals are described by their particle size distribution as observed by laser diffraction, their optical micrograph image and their aspect ratio which can be determined, for example, by means of image analysis using the Malvern Symex FPIA 3000.

Data set [4] can be described thus: Crystal shape by image analysis (Malvern Sysmex FPIA 3000): aspect ratio, circularity. The note with it: for Aspect ratio (width/length; w/l): main fraction of the crystals.
Description: as §2
The aspect ratio (width/length; w/l) is expressed by a proportion. In the case of the 5-ASA according to the invention having a particularly high bulk density, the main fraction of the crystals has an aspect ratio around 0.5. From this, a width to length ratio of w/l of 1:2 can be calculated. In the 5-ASA having a high bulk density according to the invention, the aspect ratio is around 0.36, thus corresponding to a width to length ratio of 1:3. The different aspect ratios of the 5-ASA crystal fractions according to the invention having high and particularly high bulk densities bring about the different bulk and tapped densities and the differently broad grain size distributions seen in the laser diffractograms according to FIG. 10 and FIG. 11.
The measured value of circularity describes the deviation of the crystal shape from ideal spherical shape. A value of 1 corresponds to an ideal sphere.

Where [5] appears, read: listed as 5-ASA coarse crystals.

Where two headings read alike, the source gives them in different places.

For the compound `Nc1ccc(O)c(C(=O)O)c1` [5-ASA fine acicular crystals, 5-aminosalicylic acid], the Bulk density in data set [1] and in data set [1] (listed as 5-ASA fine crystals) was 150 to 190 g/L in each case. Also, the Tapped density in data set [2] and in data set [2] (listed as 5-ASA fine crystals) was 300 to 390 g/L in each case. For the same compound, the “Grain size distribution X(10)” value in data set [3] is on record as “X (10) = 2-6 μm”; in data set [3] (listed as 5-ASA fine crystals), “X(10) = 2-6 μm”. The entries for the “Grain size distribution X(50)” value in data set [3] and in data set [3] (listed as 5-ASA fine crystals) were “X (50) = 8-20 μm” and 8-20 μm, respectively. Besides, the “Grain size distribution X(90)” value in data set [3] was “X (90) = 25-50 μm”; in data set [3] (listed as 5-ASA fine crystals), 25-50 μm.

Consider `Nc1ccc(O)c(C(=O)O)c1` [5-ASA coarse acicular crystals, 5-aminosalicylic acid], for which the Bulk density in data set [1] and in data set [1] (setting [5]) was 250 to 270 g/L in each case. Besides, the Tapped density in data set [2] and in data set [2] (setting [5]) was 450 to 480 g/L throughout. Also, the “Grain size distribution X(10)” value is on record as “X (10) = 10-15 μm” in data set [3] and “X(10) = 10-15 μm” in data set [3] (setting [5]). Moreover, the “Grain size distribution X(50)” value in data set [3] is on record as “X (50) = 50-60 μm”; in data set [3] (setting [5]), 50-60 μm. The “Grain size distribution X(90)” value in data set [3] is “X (90) = 200-220 μm”; in data set [3] (setting [5]), 200-220 μm.

Take `Nc1ccc(O)c(C(=O)O)c1` [Example 1, 5-aminosalicylic acid]: the Circularity in data set [4] (1 = ideal sphere) is about 0.8. Also, the “Aspect ratio (width/length; w/l)” value in data set [4] (listed as 5-ASA according to the invention having a particularly high bulk density) was “around 0.5”. Further, the Bulk density in data set [1] was 400 to 500 g/L. Further, the Tapped density in data set [2] lay in the range of 600 to 800 g/L. In data set [3], the “Grain size distribution X(10)” value is “X(10) = 7-10 μm”, the “Grain size distribution X(50)” value was 25-35 μm and the “Grain size distribution X(90)” value is 80-90 μm.

In the case of `Nc1ccc(O)c(C(=O)O)c1` [Example 2, 5-aminosalicylic acid], the “Aspect ratio (width/length; w/l)” value in data set [4] (listed as 5-ASA having a high bulk density according to the invention) is “around 0.36”. Further, the Bulk density in data set [1] lay within 300 to 400 g/L. In data set [2], this compound displayed a Tapped density of 510 to 700 g/L. Besides, in data set [3], the “Grain size distribution X(10)” value was “X(10) = 3-5 μm”, the “Grain size distribution X(50)” value was 15-45 μm and the “Grain size distribution X(90)” value is 90-100 μm.

Source of the values: patent US20130225539A1, “METHOD FOR PRODUCING CRYSTALLINE 5-AMINOSALICYLIC ACID” (Pharmazell GMBH, priority 2010, published 2013).
